Test results taken from patent US5677326A, “Indoline compound and 5-HT3 receptor antagonist containing the same as active ingredient” (Tokyo Tanabe Company Limited, priority 1993, dated 1997).
Counter-ions that a name gives are not always drawn. Like-named read-outs stand apart in the source and are kept apart here.

Assays:
[1] = molecular target: T1, Intestinal 5-HT3 receptor (Cavia porcellus, UniProt O70212); assay: Intestinal 5-HT3 receptor antagonism (isolated distal colon, 2-methylserotonin-induced contraction); assay type: cell-based, Hartley guinea pigs; conditions: for Kb: isolated distal colon, 2-methylserotonin contraction
T1 sequence (O70212 24-490 limits assumed): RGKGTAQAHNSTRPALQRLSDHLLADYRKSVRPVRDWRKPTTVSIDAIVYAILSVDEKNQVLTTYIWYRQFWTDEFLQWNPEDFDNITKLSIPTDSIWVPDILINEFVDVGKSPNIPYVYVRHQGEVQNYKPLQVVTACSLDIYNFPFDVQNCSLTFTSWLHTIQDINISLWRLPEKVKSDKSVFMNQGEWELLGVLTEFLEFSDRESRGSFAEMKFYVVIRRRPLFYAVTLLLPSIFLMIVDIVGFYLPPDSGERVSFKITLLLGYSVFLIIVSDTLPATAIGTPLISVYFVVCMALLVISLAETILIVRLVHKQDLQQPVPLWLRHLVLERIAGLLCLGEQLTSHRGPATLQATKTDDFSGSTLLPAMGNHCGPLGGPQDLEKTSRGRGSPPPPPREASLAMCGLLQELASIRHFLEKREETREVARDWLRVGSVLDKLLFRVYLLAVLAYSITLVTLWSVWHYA
Description: The test was conducted following the method of Miyata, et al. (The Journal of Pharmacology and Experimental Therapeutics Vol.259, No:1, 15 (1991)).
Male Hartley guinea pigs with a body weight of 300-400 g were bled to death, the distal colon (3-10 cm from the anus) was isolated and suspended in a Magnus tube filled with Krebs solution aerated with a mixed gas (95% O2, 5% CO2), and subjected to a tensile load of 1 g. After constant contraction by cumulative addition of 2-methylserotonin (10^-6 -10^-4 M) was obtained, the test agent was added and the pA2 value of the test agent was calculated based on its inhibiting action on the initial value.
The value (pA2 value) is defined as the negative logarithm (-logM) of the molar concentration (M) of the antagonist required to reduce the effect of serotonin at a concentration of 2 times the 2-methylserotonin concentration (EC50) necessary to induce half of the maximum contraction reaction, to an effect induced by an EC50 of serotonin.

[2] = molecular target: T2, 5-HT3 receptors in the heart (Rattus norvegicus, UniProt P35563); assay: Antagonism against Von Bezold-Jarisch reflex (BJ reflex); assay type: in vivo, SD rats; conditions: 5 min before serotonin 30 μg/kg, read-out: ID50 (the source's name)
T2 construct: from tissue; host or cells: living anesthetized male SD rats (in vivo)
T2 sequence (P35563 24-483): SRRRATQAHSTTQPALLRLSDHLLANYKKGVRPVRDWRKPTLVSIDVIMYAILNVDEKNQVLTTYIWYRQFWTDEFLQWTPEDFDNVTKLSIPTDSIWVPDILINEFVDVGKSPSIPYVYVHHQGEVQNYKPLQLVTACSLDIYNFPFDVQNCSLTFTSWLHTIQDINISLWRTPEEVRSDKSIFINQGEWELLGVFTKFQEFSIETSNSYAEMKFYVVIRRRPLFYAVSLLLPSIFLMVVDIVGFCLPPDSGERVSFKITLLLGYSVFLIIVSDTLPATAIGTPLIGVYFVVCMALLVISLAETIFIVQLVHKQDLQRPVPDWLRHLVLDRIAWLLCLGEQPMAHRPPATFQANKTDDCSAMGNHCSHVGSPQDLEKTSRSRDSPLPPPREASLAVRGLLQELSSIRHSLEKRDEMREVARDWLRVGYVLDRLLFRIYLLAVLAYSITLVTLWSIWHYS
Description: Antagonism against Von Bezold-Jarisch reflex (BJ reflex):
The pulse was determined by measuring the electrocardiogram R waves (secondary induction) with an instantaneous pulse rate meter.

[3] = system: cisplatin-induced vomiting; assay: Inhibiting effect on cisplatin-induced vomiting; assay type: in vivo, ferrets; conditions: oral, 1 hour before cisplatin; for No. of retching / No. of vomiting animals/No. of animals used / No. of vomitings: 6 hours
From the text: Inhibiting effect on cisplatin-induced vomiting:
Vomiting was induced in ferrets by administration of cisplatin. The inhibiting effect on this vomiting was observed. […] The test agents were orally administered one hour prior to cisplatin administration. […]

gastric emptying = assay: Accelerating effect on gastric emptying (cisplatin-reduced); assay type: in vivo, SD rats; conditions: for Gastric evacuation: oral, 30 min before cisplatin 10 mg/kg
Description: Accelerating effect on gastric emptying
Seven-week-old male SD rats which had been fasted for 24 hours were used. The effect on gastric emptying was studied in rats with reduced gastric emptying due to cisplatin. The rats were intragastrically administered the test feed (1.5% aqueous CMC solution containing 50 mg/100 ml phenol red) at 1.5 ml/rat, and after 15 minutes the stomachs were dissected, the residual amount of phenol red in the stomach was measured, in order to determine the gastric emptying in normal animals. A cisplatin-induced reduction in gastric emptying was measured by intraabdominal administration of cisplatin (10 mg/kg) 30 minutes prior to supplying the test feed. The test compound was also administered orally 30 minutes prior to the cisplatin administration to study the accelerating effect of the test compound on gastric emptying.

Acute toxicity (oral) = assay type: in vivo; conditions: rats; for LD50: rat, in vivo; for cases of death: 1000 mg/kg
[4] = system: restrained stress-induced diarrhea; assay: Inhibiting effect on restrained stress-induced diarrhea (oral administration); assay type: in vivo, Wistar rats; conditions: 1 hour before stress
Description: Inhibiting effect on restrained stress-induced diarrhea (oral administration): This test was conducted following the method of Miyata, et al. […] Nine-week-old male Wistar rats fasted overnight were placed in a stress cage and their feces produced in 5 hours were observed. Of 15 rats, 14 developed diarrhea. The inhibiting effect on diarrhea was measured by oral administration of the test compounds one hour prior to placement in the stress cage.

[5] = system: 5-HT3 receptors in the upper intestine; assay: Antagonism against 5-HT-induced intestinal secretion (jejunal loop); assay type: in vivo, wister rats; conditions: for net fluid transfer in jejunal loop: caudal vein, 15 min before serotonin
Description: Antagonism against 5-HT-induced intestinal secretion:
Male wister rats (8-11 weeks old) were anesthetized with urethane, and the abdomen was opened a polyethylene catheter was placed in the jejunum 5 cm distal to the duodenojejunal flexure and fixed by ligation. The second ligation was made at a distal point of 20 cm to create a jejunal loop. Two ml of physiological saline was injected into this loop and initiated continuous injection of physiological saline (0.1 ml/min) or 5-HT (3 μg/0.1 ml/kg/min, serotonin treated group) into the mesenteric artery through the mesenteric artery gastric branch, and after 30 minutes the jejunal loop was isolated, the residual fluid amount was measured, and the net fluid transfer per gram of tissue weight was calculated. The net fluid transfer was expressed as the fluid amount (weight) change in 30 minutes per jejunal tissue weight (g/30 min/g). A "+" was assigned when the fluid amount increased compared with 2 ml of physiological saline injected into the loop, and "-" when it decreased

[6] = system: duodenal extension reflex; assay: Inhibiting effect on duodenal extension reflex; assay type: in vivo, Wistar rats; conditions: for Inhibition rate, 5-min value / Inhibition rate, 15-min value / Inhibition rate, 25-min value: intravenous
From the text: Inhibiting effect on duodenal extension reflex: Unfasted male Wistar rats with a body weight of 300-390 g were opened at the abdomen under urethane anesthesia, and ligated at 2 locations, the gastric pyloric region and 3-4 cm directly under it, to create a duodenal loop. […] The beaker was raised at once to create a internal loop pressure of 75 cm H2, and the depressor reflex and effect of the test agent administration were observed. […] The test agent was then administrated intravenously, and at 5, 15 and 25 minutes after administration an extension stimulus was applied, the depressor reflex was observed, and the differences were expressed as percentages with respect to the initial value, to give the inhibition rates.

[7] = system: restraint stress-induced diarrhea; assay: Inhibiting effect on restraint stress-induced diarrhea (intraabdominal administration); assay type: in vivo, Wistar rats; conditions: 30 μg/kg, 30 min before stress
Description: Inhibiting effect on restraint stress-induced diarrhea (intraabdominal administration): This test was conducted in the same manner as Test 3. Nine- to ten-week-oldmale Wistar rats fasted overnight were placed in a stress case and their feces produced in 5 hours were observed. Of 15 rats, 14 developed diarrhea. The inhibiting effect on diarrhea was measured by intraabdominal administration of a test compound 30 minutes prior to placement in the stress cage.

stress-related diarrhea = conditions: animal models; J. Pharmacol. Exp. Ther. 261, 297 (1992); cited from earlier work
[8] = read-out: M (molar concentration of antagonist)

SMILES: CC1CN(C(=O)C2CCc3[nH]cnc3C2)c2ccccc21 (stereo not drawn) [A, reference compound]
- Kb ([1]; read-out: pA2 (converted)): > 10000 pM

SMILES: Cl.O=C(C1CCc2nc[nH]c2C1)N1CC(c2ccccc2)c2ccccc21 (stereo not drawn) [Compound 2, 5-[(3-phenylindolin-1-yl)carbonyl]-4,5,6,7-tetrahydrobenzimidazole hydrochloride]
- Kb ([1]; read-out: pA2 (converted)): 1000 pM
- ED50 ([2]; iv): 0.0003 mg/kg

SMILES: Cl.O=C(C1CCc2nc[nH]c2C1)N1CC(c2ccccc2)c2ccccc21 (stereo not drawn) [Compound 4, 5-[(3-phenylindolin-1-yl)carbonyl]-4,5,6,7-tetrahydrobenzimidazole hydrochloride]
- Latency* (time to initial retching) ([3]; 0.3 μg): 114.0 min
- Latency** (time to initial vomiting) ([3]; 0.3 μg): 114.0 min
- No. of retching ([3]; 0.3 μg): 139.0
- No. of vomiting animals/No. of animals used ([3]; 0.3 μg): 2/2
- No. of vomitings ([3]; 0.3 μg): 7.0
- Latency* (time to initial retching) ([3]; 1.0 μg): > 289.7 min
- Latency** (time to initial vomiting) ([3]; 1.0 μg): 293.0 min
- No. of retching ([3]; 1.0 μg): 14.7
- No. of vomiting animals/No. of animals used ([3]; 1.0 μg): 1/3
- No. of vomitings ([3]; 1.0 μg): 1.0
- inhibition of cisplatin-induced gastric emptying reduction (in words) (gastric emptying; 0.3 μg/kg): inhibited similar cisplatin-induced gastric emptying reduction
- Gastric evacuation (gastric emptying; 0.3 μg/kg): 73.3%
- amount needed relative to YM-060 for similar inhibition of gastric emptying reduction (gastric emptying; 0.3 μg/kg, relative to the amount of YM-060): less than 1/3
- gastric emptying acceleration (in words) (gastric emptying; 1.0 μg/kg): gastric emptying was further accelerated
- Gastric evacuation (gastric emptying; 1.0 μg/kg): 82.4%
- LD50 (Acute toxicity (oral)): ≥ 1000 mg/kg
- cases of death (Acute toxicity (oral)): no cases of death
- activity in the colon compared to YM-060 and YM-114 ([1]; colon, relative to YM-060 and YM-114): about 15 -fold
- Kb [1, 8]: 300 pM
- Kb ([1]; read-out: pA2 (converted)): 251 pM
- ED50 ([2]; iv): 0.00039 µmol/kg
- Inhibition rate ([4]; 30 μg/kg): 70%
- No. of animals with diarrhea/No. of animals used ([4]; 30 μg/kg): 3/10
- net fluid transfer in jejunal loop ([5]; 0.1 μg/kg): -0.50 ± 0.07 g/30 min/g tissue weight
- net fluid transfer in jejunal loop ([5]; 1.0 μg/kg): -0.80 ± 0.09 g/30 min/g tissue weight
- Inhibition rate, 5-min value ([6]; 1 μg/kg): 21.7%
- Inhibition rate, 15-min value ([6]; 1 μg/kg): 6.7%
- Inhibition rate, 25-min value ([6]; 1 μg/kg): 20.2%
- Inhibition rate, 5-min value ([6]; 10 μg/kg): 16.3%
- Inhibition rate, 15-min value ([6]; 10 μg/kg): 17.8%
- Inhibition rate, 25-min value ([6]; 10 μg/kg): 21.1%
- inhibition of intestinal sensitivity to dilatation / alleviation of abdominal pain (in words) ([6]; rat, in vivo): inhibited intestinal sensitivity to dilatation stimulation more strongly than YM-060
- Inhibition rate [7]: 90%
- No. of animals with diarrhea/No. of animals used [7]: 1/10

SMILES: Cl.O=C(C1CCc2nc[nH]c2C1)N1CC(c2cccc(O)c2)c2ccccc21 (stereo not drawn) [Compound 6, 5-[(3-(3-hydroxyphenyl)indolin-1-yl)carbonyl]-4,5,6,7-tetrahydrobenzimidazole hydrochloride]
- LD50 (Acute toxicity (oral)): ≥ 1000 mg/kg
- cases of death (Acute toxicity (oral)): no cases of death
- Kb ([1]; read-out: pA2 (converted)): 100 pM
- ED50 ([2]; iv): 0.00015 mg/kg
- Inhibition rate ([4]; 100 μg/kg): 100%
- No. of animals with diarrhea/No. of animals used ([4]; 100 μg/kg): 0/5

SMILES: Cl.O=C(C1CCc2nc[nH]c2C1)N1CC(c2ccc(O)cc2)c2ccccc21 (stereo not drawn) [Compound 8, 5-[(3-(4-hydroxyphenyl)indolin-1-yl)carbonyl]-4,5,6,7-tetrahydrobenzimidazole hydrochloride]
- LD50 (Acute toxicity (oral)): ≥ 1000 mg/kg
- cases of death (Acute toxicity (oral)): no cases of death
- Kb ([1]; read-out: pA2 (converted)): 100 pM
- ED50 ([2]; iv): 0.00013 mg/kg
- Inhibition rate ([4]; 30 μg/kg): 70%
- No. of animals with diarrhea/No. of animals used ([4]; 30 μg/kg): 2/10

SMILES: O=C(C1CCc2nc[nH]c2C1)N1CC(c2ccccc2O)c2ccccc21 (stereo not drawn) [Compound 10, 5-[(3-(2-hydroxyphenyl)indolin-1-yl)carbonyl]-4,5,6,7-tetrahydrobenzimidazole hydrochloride]
- Kb [1, 8]: 50 pM
- Kb ([1]; read-out: pA2 (converted)): 126 pM

SMILES: COc1cccc(C2CN(C(=O)C3CCc4nc[nH]c4C3)c3ccccc32)c1 (stereo not drawn) [Compound 12, 5-[(3-(3-methoxyphenyl)indolin-1-yl)carbonyl]-4,5,6,7-tetrahydrobenzimidazole hydrochloride]
- Kb [1, 8]: 130 pM
- Kb ([1]; read-out: pA2 (converted)): 100 pM

SMILES: CN1C2CCCC1CC(NC(=O)c1nn(C)c3ccccc13)C2 (stereo not drawn) [Granisetron, N-(endo-9-methyl-9-azabicyclo [3,3,1]nona-3-yl)-l-methyl-indazol-3-carboxamide hydrochloride]
- suppression of stress-related diarrhea (in words) (stress-related diarrhea): suppress stress-related diarrhea

SMILES: Cc1nccn1CC1CCc2c(c3ccccc3n2C)C1=O (stereo not drawn) [Ondansetron, 1,2,3,4-tetrahydro-9-methyl-3-[(2-methyl-1H-imidazol-1-yl)methyl]-4H-carbazol-4-one-hydrochloride dihydrate]
- suppression of stress-related diarrhea (in words) (stress-related diarrhea): suppress stress-related diarrhea

SMILES: CN1[C@@H]2CC[C@H]1C[C@@H](OC(=O)c1c[nH]c3ccccc13)C2 [Tropisetron, endo-8-methyl-8-azabicyclo[3,2,1]octa-3-yl indol-3-ylcarboxylate]
- Inhibition rate, 5-min value ([6]; 10 μg/kg): 42.7%
- Inhibition rate, 15-min value ([6]; 10 μg/kg): 44.1%
- Inhibition rate, 25-min value ([6]; 10 μg/kg): 30.6%

SMILES: O=C([C@@H]1CCc2[nH]cnc2C1)N1CCc2ccccc21 [YM-114, reference compound]
- Kb ([1]; read-out: pA2 (converted)): 3980 pM
- ED50 ([2]; intravenous): 0.00015 mg/kg
- Inhibition rate ([4]; 30 μg/kg): 30%
- No. of animals with diarrhea/No. of animals used ([4]; 30 μg/kg): 7/10

SMILES: NCCc1c[nH]c2ccc(O)cc12 [serotonin, 5-hydroxytryptamine]
- acceleration in intestinal secretion ([5]; serotonin administration versus control): 0.19 g/30 min/g tissue weight
